# Assay: Water Miscibility Test
# Format: physicochemical
# Conditions: 0.5 g ionic liquid and 4.5 g de-ionized water, sonicated 1.5 hours; miscible if homogenous transparent system within 15 minutes of standing
# Procedure: “Hydrophilic ionic compound” or “water miscible ionic compound” as used herein refers to ionic compound that is partially or wholly miscible with water, i.e. it is capable of forming a visually homogenous or transparent mixture with water according to the Water Miscibility Test described herein. The water miscibility of an ionic liquid is measured by the following water miscibility test. A mixture of 0.5 g ionic liquid and 4.5 g de-ionized water are sonicated in a Bransonic Ultrasonic Bath (model # 1210R-MTH, 50/60 Hz, 117 volts, 1.3 AMPS) according to manufacture's specifications for 1.5 hours. Thereafter, if a homogenous transparent system results within 15 minutes of standing without agitation, then the ionic liquid is water miscible.
row,Substance,Water Miscible?
1,Tetraoctyl Ammonium Dodecylbenzenesulfonate [Example 3],No
2,Tetraoctyl Ammonium Mid-Chain Branched Dodecylsulfate [Example 1],No
3,Triisooctylmethyl Ammonium Mid-Chain Branched Dodecylsulfate [Example 2],No

# Reference: patent publication US7786064B1, “Ionic liquids derived from functionalized anionic surfactants” (The Procter & Gamble Company, priority 2004, dated 2010)
